Measurements taken from EP0416609A2, “Benzo[b]thiophene-containing lipoxygenase-inhibiting compounds” (ABBOTT LABORATORIES, priority 1989, dated 1991).
pIC50: −log10 of the molar value.

Biological target: T1, 5-lipoxygenase (Rattus norvegicus, UniProt P12527)
T1 construct: containing the 20,000xg supernatant from 6x10⁴ homogenized RBL-1 cells; endogenous in cells; host or cells: RBL-1 cells (20,000xg supernatant of homogenate)
T1 sequence (P12527 1-673): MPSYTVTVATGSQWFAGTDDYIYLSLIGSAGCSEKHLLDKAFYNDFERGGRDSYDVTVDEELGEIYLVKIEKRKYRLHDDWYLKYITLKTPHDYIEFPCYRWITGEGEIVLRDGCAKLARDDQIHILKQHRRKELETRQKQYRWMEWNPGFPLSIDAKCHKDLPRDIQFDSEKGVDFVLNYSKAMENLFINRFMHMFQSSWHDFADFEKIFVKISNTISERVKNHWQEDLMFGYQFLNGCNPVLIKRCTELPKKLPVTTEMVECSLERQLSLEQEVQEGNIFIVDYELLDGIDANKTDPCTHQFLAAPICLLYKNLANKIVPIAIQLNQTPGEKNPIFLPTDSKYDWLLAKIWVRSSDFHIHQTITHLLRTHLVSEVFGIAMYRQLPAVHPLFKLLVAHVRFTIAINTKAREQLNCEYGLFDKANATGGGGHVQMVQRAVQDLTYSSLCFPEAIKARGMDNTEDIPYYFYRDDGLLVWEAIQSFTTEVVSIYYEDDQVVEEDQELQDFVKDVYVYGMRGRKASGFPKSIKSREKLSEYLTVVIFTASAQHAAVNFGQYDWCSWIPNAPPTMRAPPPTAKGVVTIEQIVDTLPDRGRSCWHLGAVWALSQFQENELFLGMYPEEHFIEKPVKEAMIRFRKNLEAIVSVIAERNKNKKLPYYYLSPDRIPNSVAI
Experiment: Lipoxygenase IC50 determination (20,000xg supernatant from homogenized RBL-1 cells, radiolabelled arachidonic acid)
Format: biochemical
Settings: 20,000xg supernatant from 6x10⁴ homogenized RBL-1 cells, 2% DMSO vehicle, triplicate incubations; read-out: IC₅₀
Method: Lipoxygenase IC₅₀ Determination
Reactions were initiated by addition of radiolabelled arachidonic acid and terminated by acidification and ether extraction. Reaction products were separated from nonconverted substrate by thin layer chromatography and measured by liquid scintillation spectroscopy. All treatments were evaluated in triplicate incubations. […] ICso values and 95% confidence limits were computed by linear regression analysis of percentage inhibition versus log inhibitor concentration plots.

Compound | pIC50
CCOC(=O)ON(C(N)=O)C(C)c1cc2ccccc2s1 (stereo not shown) [Example 4, N-ethoxycarbonyloxvyN-[1-(benzo[b]thien-2-yl)ethyl]urea] | 5.82
CC(c1cc2ccccc2s1)N(OC(=O)CCC(=O)O)C(N)=O (stereo not shown) [Example 9, N-succinyloxy-N-[1-(benzo[b]thien-2-yl)ethyl]urea] | 6.22
CC(=O)N(O)C(C)c1cc2ccccc2s1 (stereo not shown) [Example 1, N-hydroxy-N-(1-benzol[b]thien-2-ylethyl)acetamide] | 5.96
CC(=O)ON(C(N)=O)C(C)c1cc2ccccc2s1 (stereo not shown) [Example 3, N-acetoxy-N-[1-(benzol[b]thien-2-yl)ethyl]urea] | 5.68

More lines, now with the values ahead:

pIC50 | Compound
5.92 | COC(=O)ON(C(N)=O)C(C)c1cc2ccccc2s1 (stereo not shown) [Example 5, N-methoxycarbonyloxy-N-[1-(benzol[b]thien-2-yl)ethyl]urea]
5.82 | CC(=O)NC(=O)N(O)C(C)c1cc2ccccc2s1 (stereo not shown) [Example 10, N′-acetyl-N-hydroxy-N-[1-(benzo[b]thien-2-yl)ethyl]urea;]
6.00 | CC(c1cc2ccccc2s1)N(O)C(=O)NC(N)=O (stereo not shown) [Example 11]
